Assay results: patent US12532889B2, “Herbicidal compositions comprising glufosinate” (BASF SE, priority 2023, dated 2026)

Columns and labels:
Assay in all cases: Post-emergence application in field trials (Example A)
Assay type in all cases: in vivo
[1] = test system: AMAPA (Amaranthus palmeri); details: Table 1.27, AMAPA height 30 cm, 21 DAT, water 200 l/ha
In short: (§1)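 Weeds in field plots (natural infestation or seeded) are treated after emergence. Damage is then assessed at set days after treatment relative to untreated plants, scored 0–100%. Mixture values are compared with Colby-expected additive activity E.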

[2] = test system: SETVE (Setaria verticillata); details: 42 DAT, growth stage 21-23, height 8-16 cm
In short: as §1

[3] = test system: HORVS (Hordeum vulgare (spring barley)); details: Table 3.1, HORVS volunteer barley, growth stage 22-24, height 32-35 cm, 28 DAT, water 100 l/ha
In short: as §1

[4] = test system: PASSC (Paspalum scrobiculatum); details: Table 5.2, A-1 25, B-6 252 g ai/ha, 21 DAT, water 450 l/ha
In short: as §1

[5] = test system: AMASP (Amaranthus spinosus); details: Table 5.5; AMASP growth stage 72; A-1 25, B-6 252 g ai/ha; 28 DAT; water 400 l/ha
In short: as §1

[6] = test system: CYPES (Cyperus esculentus); details: 21 DAT, water 140 l/ha
In short: as §1

BIDPI (Bidens pilosa) = details: Table 1.14; BIDPI height 20-45 cm; A-1 50, B-2 400 g ai/ha; 21 DAT; water 100 l/ha
In short: as §1

CYPIR (Cyperus iria) = details: Table 2.1, CYPIR growth stage 13-14, height 3-5 cm, 14 DAT, water 300 l/ha
In short: as §1

CNDSS (Conyza sp.) = details: Table 1.5; CNDSS growth stage 26-59, height 15-55 cm; A-1 50, B-2 600 g ai/ha; 14 DAT; water 200 l/ha
In short: as §1

GALAP (Galium aparine) = details: Table 3.1; GALAP growth stage 11-16, height 2-20 cm; A-1 18, B-2 500 g ai/ha; 28 DAT; water 100 l/ha
In short: as §1

EPHHI (Euphorbia hirta) = details: Table 1.2; EPHHI height 25 cm; A-1 solo 25 g ai/ha; 14 DAT; water volume 100 l/ha; 0.5% v/v MSO
Procedure: (§2) In the examples below, using the method of S. R. Colby (1967) “Calculating synergistic and antagonistic responses of herbicide combinations”, Weeds 15, p. 22ff., the value E, which is expected if the activity of the individual active compounds is only additive, was calculated:
(§3) [formula] • where • X=percent activity using active herbicide A at an application rate a; • Y=percent activity using active herbicide B (e.g. glufosinate) at an application rate b; • E=expected activity (in %) by A+B at application rates a+b.
(§4) If the value found experimentally is higher than the value E calculated according to Colby, a synergistic effect is present.
(§5) On field test sites, natural weed infestation or seeded weeds were treated post-emergence of the weeds.
(§6) In the field trials, the weeds were treated as indicated below.
(§7) In the following experiments, the herbicidal activity for the individual herbicidal compositions (solo and mixture applications) was assessed at the indicated days after treatment (DAT). The assessments for the damage on undesired weeds caused by the composition was carried out using a scale from 0 to 100%, compared to the untreated control plants. Here, 0 means no damage and 100 means complete destruction of the plants.
(§8) Post-emergence application of Herbicide A-1 (A-1) and glufosinate ammonium (B-2) in Field Trials:
(§9) Herbicide A-1 (50 g/l), glufosinate ammonium (200 g/l) and optional herbicide C were, together with addition of 0.5% v/v MSO (methylated seed oil) as adjuvant, formulated in water as distribution medium as indicated and sprayed with commercial flat fan nozzles.

ELEIN (Eleusine indica) = test system: ELEIN (Eleusine indica)
Procedure: as §2, §3, §4, §5, §6, §7, §8, §9

[7] = test system: DIGIN = TRCIN (Digitaria insularis)
Procedure: as §2, §3, §4, §5, §6, §7, §8, §9

[8] = test system: SPCHI (Spermacoce hispida); details: Table 1.2, SPCHI height 25 cm, 14 DAT, water volume 100 l/ha, 0.5% v/v MSO
Procedure: as §2, §3, §4, §5, §6, §7, §8, §9

[9] = test system: CYPDI (Cyperus difformis); details: CYPDI height 25 cm
Procedure: as §2, §3, §4, §5, §6, §7, §8, §9

CCOC(=O)COc1ccccc1Oc1nc(-n2c(=O)cc(C(F)(F)F)n(C)c2=O)c(F)cc1Cl [A-1, ethyl 2-[2-[[3-chloro-5-fluoro-6-[3-methyl-2,6-dioxo-4-(trifluoromethyl)pyrimidin-1-yl]-2-pyridyl]oxy]phenoxy]acetate]
% herbicidal activity ([1]; A-1 12.5, B-2 400 g ai/ha): 70%
% herbicidal activity ([1]; A-1 25, B-2 400 g ai/ha): 85%
% Herbicidal activity ([2]; A-1 12.5 g ai/ha): 60%
% herbicidal activity ([2]; A-1 18 g ai/ha): 50%
% herbicidal activity ([3]; A-1 12.5, B-2 500 g ai/ha): 40%
% herbicidal activity ([3]; A-1 18, B-2 500 g ai/ha): 85%
% herbicidal activity [4]: 22%
% herbicidal activity [5]: 84%
% herbicidal activity ([6]; Table 4.2, A-1 25, B-2 655 g ai/ha): 22%
% herbicidal activity ([6]; Table 4.2, A-1 50, B-2 655 g ai/ha): 42%
% herbicidal activity (BIDPI (Bidens pilosa)): 74%
% herbicidal activity (CYPIR (Cyperus iria); A-1 12.5, B-2 500 g ai/ha): 30%
% herbicidal activity (CYPIR (Cyperus iria); A-1 25, B-2 500 g ai/ha): 60%
% herbicidal activity (CNDSS (Conyza sp.)): 72%
% herbicidal activity (GALAP (Galium aparine)): 79%
% herbicidal activity (EPHHI (Euphorbia hirta)): 50%
% herbicidal activity (ELEIN (Eleusine indica); Table 1.10, ELEIN growth stage 23-25, height 3-5 cm, A-1 25, B-2 400 g ai/ha, 20 DAT, water 200 l/ha): 82%
% herbicidal activity (ELEIN (Eleusine indica); Table 1.1, ELEIN growth stage 24, A-1 solo 25 g ai/ha, 14 DAT, water volume 100 l/ha, 0.5% v/v MSO): 75%
% herbicidal activity (ELEIN (Eleusine indica); Table 1.14, ELEIN growth stage 24, A-1 25, B-2 400 g ai/ha, 21 DAT, water 100 l/ha): 58%
% herbicidal activity (ELEIN (Eleusine indica); Table 1.15, ELEIN height 25 cm, A-1 25, B-2 400 g ai/ha, 21 DAT, water 100 l/ha): 50%
% herbicidal activity (ELEIN (Eleusine indica); Table 1.15, ELEIN height 25 cm, A-1 50, B-2 400 g ai/ha, 21 DAT, water 100 l/ha): 60%
% herbicidal activity (ELEIN (Eleusine indica); Table 1.18, ELEIN growth stage 24, A-1 25, B-2 400 g ai/ha, 21 DAT, water 200 l/ha): 67%
% herbicidal activity (ELEIN (Eleusine indica); Table 1.18, ELEIN growth stage 24, A-1 50, B-2 400 g ai/ha, 21 DAT, water 200 l/ha): 82%
% herbicidal activity (ELEIN (Eleusine indica); Table 1.21, ELEIN growth stage 24, A-1 25, B-2 400 g ai/ha, 21 DAT, water 200 l/ha): 68%
% herbicidal activity (ELEIN (Eleusine indica); Table 1.21, ELEIN growth stage 24, A-1 50, B-2 400 g ai/ha, 21 DAT, water 200 l/ha): 73%
% herbicidal activity (ELEIN (Eleusine indica); Table 1.4, ELEIN growth stage 24, A-1 50, B-2 400 g ai/ha, 14 DAT, water 200 l/ha): 88%
% herbicidal activity (ELEIN (Eleusine indica); Table 1.9, ELEIN growth stage 23-25, height 3-5 cm, A-1 25, B-2 400 g ai/ha, 20 DAT, water 100 l/ha): 91%
% herbicidal activity ([7]; Table 1.13, DIGIN height 20-30 cm, A-1 50, B-2 400 g ai/ha, 21 DAT, water 100 l/ha): 30%
% herbicidal activity ([7]; Table 1.17, DIGIN height 20-30 cm, A-1 50, B-2 400 g ai/ha, 21 DAT, water 200 l/ha): 30%
% herbicidal activity ([7]; Table 1.19, DIGIN height 20-30 cm, A-1 50, B-2 400 g ai/ha, 21 DAT, water 200 l/ha): 30%
% herbicidal activity ([7]; Table 1.20, DIGIN height 60-80 cm, A-1 50, B-2 400 g ai/ha, 21 DAT, water 200 l/ha): 55%
% herbicidal activity ([7]; Table 1.22, DIGIN in tillering stage, height 5-15 cm, A-1 50, B-2 400 g ai/ha, 21 DAT, water 200 l/ha): 57%
% herbicidal activity ([7]; Table 1.22, DIGIN in tillering stage, height 5-15 cm, A-1 50, B-2 600 g ai/ha, 21 DAT, water 200 l/ha): 57%
% herbicidal activity ([7]; Table 1.23, DIGIN growth stage 16-18, height 15-25 cm, A-1 50, B-2 400 g ai/ha, 21 DAT, water 200 l/ha): 57%
% herbicidal activity ([7]; Table 1.23, DIGIN growth stage 16-18, height 15-25 cm, A-1 50, B-2 600 g ai/ha, 21 DAT, water 200 l/ha): 57%
% herbicidal activity ([7]; Table 1.24, DIGIN growth stage 67, height 100 cm, A-1 50, B-2 400 g ai/ha, 21 DAT, water 200 l/ha): 7%
% herbicidal activity ([7]; Table 1.24, DIGIN growth stage 67, height 100 cm, A-1 50, B-2 600 g ai/ha, 21 DAT, water 200 l/ha): 7%
% herbicidal activity ([7]; Table 1.25, DIGIN in tillering stage, height 8-20 cm, A-1 50, B-2 400 g ai/ha, 21 DAT, water 200 l/ha): 53%
% herbicidal activity ([7]; Table 1.25, DIGIN in tillering stage, height 8-20 cm, A-1 50, B-2 600 g ai/ha, 21 DAT, water 200 l/ha): 53%
% herbicidal activity ([7]; Table 1.26, DIGIN in tillering stage, height 50-70 cm, A-1 50, B-2 400 g ai/ha, 21 DAT, water 200 l/ha): 55%
% herbicidal activity ([7]; Table 1.26, DIGIN in tillering stage, height 50-70 cm, A-1 50, B-2 600 g ai/ha, 21 DAT, water 200 l/ha): 55%
% herbicidal activity ([7]; Table 1.3, DIGIN height 60-80 cm, A-1 25, B-2 400 g ai/ha, 14 DAT, water 200 l/ha): 37%
% herbicidal activity ([7]; Table 1.3, DIGIN height 60-80 cm, A-1 50, B-2 400 g ai/ha, 14 DAT, water 200 l/ha): 60%
% herbicidal activity ([7]; Table 1.5, DIGIN growth stage 16-18, height 15-25 cm, A-1 50, B-2 400 g ai/ha, 14 DAT, water 200 l/ha): 62%
% herbicidal activity ([7]; Table 1.5, DIGIN growth stage 16-18, height 15-25 cm, A-1 50, B-2 600 g ai/ha, 14 DAT, water 200 l/ha): 62%
% herbicidal activity ([7]; Table 1.7, DIGIN height 50-70 cm, tillering stage, A-1 solo 50 g ai/ha, 14 DAT, water volume 200 l/ha, 0.5% v/v MSO): 42%
% herbicidal activity ([8]; A-1 solo 25 g ai/ha): 40%
% herbicidal activity ([8]; A-1 solo 50 g ai/ha): 50%
% herbicidal activity ([9]; Table 1.15, A-1 25, B-2 400 g ai/ha, 21 DAT, water 100 l/ha): 50%
% herbicidal activity ([9]; Table 1.2, A-1 solo 25 g ai/ha, 14 DAT, water volume 100 l/ha, 0.5% v/v MSO): 52%
% herbicidal activity ([9]; Table 1.2, A-1 solo 50 g ai/ha, 14 DAT, water volume 100 l/ha, 0.5% v/v MSO): 60%
